{"source": "PubChem BioAssay AID2060890", "about": "(Molecular Pharmacology Branch, DTP, NCI, 2025);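 also: spheroids exposed to agents for 7 days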;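 as to viability, T/C: 100% = DMSO vehicle wells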", "test_system": "LG0703-F948-PDC complex spheroid viability", "test": "Anticancer human tumor LG0703-F948-PDC patient-derived lung adenocarcinoma cell line growth inhibition [RAS]", "conditions": "for IC50: curve of first compound; for viability, T/C: stronger effect = lower value", "description": "RAS pathway inhibitors in Combinations in Complex Spheroids\nA high-throughput screen of multi-cell type tumor spheroids was designed to identify active combinations of RAS pathway inhibitors and targeted small molecules. Complex spheroids include a stromal component modeled by human endothelial cells (HUVEC) and fibroblasts modeled by human mesenchymal stem cells (MSCs). The concentration ranges selected for each drug and investigational agent were based upon clinically achievable concentrations if the clinical Cmax of the agent was known.\nCompounds. The drugs and investigational agents: abemaciclib (NSC768073), cobimetinib (NSC768068), divarasib (GDC6063, NSC841802), docetaxel (NSC628503), GDC-1971 (RLY-1971, NSC841576), gemcitabine (NSC613327), inavolisib (NSC800729), ipatasertib (NSC767898), KB-0742 (NSC834161), MRTX-1133 (NSC836407), osimertinib (NSC779217), RMC-4630 (NSC839698), RMC-6236 (NSC851965), RMC-6291 (NSC852671), Ro-3306 (NSC812927), sapanisertib (NSC764658), SN-38 (NSC673596), staurosporine (NSC755774), SY5609 (NSC837396), and tovorafenib (DAY101, NSC766906), were obtained from the National Cancer Institute (NCI) Developmental Therapeutics Program Chemical Repository. The FDA-approved anticancer drug set is available from the NCI Developmental Therapeutics Program. […] The stock solutions were prepared in dimethyl sulfoxide (DMSO, Sigma-Aldrich, St. Louis, MO, cat. D2650) at 800-fold the tested concentration and stored at -70 degrees C prior to their use. All drugs and investigational agents were tested over a range starting from a high concentration at or near the clinical Cmax and decreasing in half-log increments. If the clinical Cmax for an agent had not been determined, the highest concentration tested was 10 microM.\nCell Culture. All cells were maintained in an incubator at 37 degrees C and 5% CO2 with 95% humidity. The PDC lines were cultured according to standard operating procedures established by the NCI PDMR. All PDCs were thawed and cultured in Matrigel-coated flasks prepared with a working solution of 1X Ham's F-12 nutrient mix, without supplementation (Invitrogen, Waltham, MA, cat. 11765054), 100 U/mL penicillin-streptomycin (Invitrogen, cat. 15140122), and 2.5% Matrigel (Corning Inc., Corning, NY, cat. 354248) for the first three passages. The 362531-283-R-J2-PDC and 782815-120-R-J1-PDC lines were cultured in 6C/Colon 1B media, which includes advanced DMEM/F-12 (Thermo Fisher Scientific, cat. 12634028), 10 mM HEPES (Thermo Fisher Scientific, cat. 15630080), 1X GlutaMAX supplement (Thermo Fisher Scientific, cat. 35050061), 0.1 mg/mL primocin (InvivoGen, San Diego, CA, cat. ant-pm-2), 10% defined fetal bovine serum, heat inactivated (HyClone Laboratories Inc., Logan, UT, cat. SH30070.03HI), 50% L-WRN conditioned media (ATCC, cat. CRL-3276), 1.25 mM N-Acetyl-L-cysteine (Sigma-Aldrich, cat. A9165), 10 mM nicotinamide (Sigma-Aldrich, cat. N0636), 1X B-27 supplement (Thermo Fisher Scientific, cat. 17504044), 1X N-2 supplement (Thermo Fisher Scientific, cat. 17502048), 50 ng/mL human EGF (Thermo Fisher Scientific, cat. PHG0311), and 10 microM Y-27632 dihydrochloride (Tocris Bioscience, cat. 1254). The K12877-001-R-J1-PDC line was cultured in 6I media, which includes all 6C/Colon 1B media plus 10 ng/mL human FGF-10 (PeproTech, cat. 100-26), 1 ng/mL human FGF-2 (PeproTech, cat. 100-18B), 1 µM prostaglandin E2 (Tocris Bioscience, cat. 2296), […] hydrocortisone (Sigma-Aldrich, cat. H4001), and […] bovine insulin (Sigma-Aldrich, cat. I6634). The K86415-001-R-J1-PDC line was cultured in 6D media, which includes all 6C/Colon 1B media components minus the L-WRN conditioned media. The 485176-168-R4-J1-PDC was cultured in PANC media, which includes all 6C/Colon 1B media plus 100 ng/mL human FGF-10 (PeproTech, cat. 100-26), 500 nM SB-431542 (Selleckchem, cat. S1067), and 10 nM gastrin (Tocris Bioscience, cat. 3006). […]"}
{"smiles": "CC(C)NCC(C(=O)N1CCN(c2ncnc3c2C(C)CC3O)CC1)c1ccc(Cl)cc1", "note": "(configuration not stated) + C#Cc1c(F)ccc2cc(O)cc(-c3ncc4c(N5CC6CCC(C5)N6)nc(OCC56CCCN5CC(F)C6)nc4c3F)c12", "values": [{"measurement": "IC50", "setting": "second compound 0.0316 µM", "result": 601, "unit": "nM"}, {"measurement": "IC50", "setting": "second compound 0.1 µM", "result": 699, "unit": "nM"}, {"measurement": "IC50", "setting": "second compound 0.316 µM", "result": 238, "unit": "nM"}, {"measurement": "IC50", "setting": "second compound 1 µM", "result": 257, "unit": "nM"}, {"measurement": "IC50", "setting": "second compound 3.16 µM", "result": 59.4, "unit": "nM"}, {"measurement": "IC50", "setting": "second compound 10 µM", "result": "< 31.6", "unit": "nM"}, {"measurement": "viability, T/C", "setting": "second compound 0.0316 µM, first compound 0.0316 µM", "result": 90, "unit": "%"}, {"measurement": "viability, T/C", "setting": "second compound 0.0316 µM, first compound 0.1 µM", "result": 67.3, "unit": "%"}, {"measurement": "viability, T/C", "setting": "second compound 0.0316 µM, first compound 0.316 µM", "result": 59.7, "unit": "%"}, {"measurement": "viability, T/C", "setting": "second compound 0.0316 µM, first compound 1 µM", "result": 46.4, "unit": "%"}, {"measurement": "viability, T/C", "setting": "second compound 0.0316 µM, first compound 3.16 µM", "result": 29.8, "unit": "%"}, {"measurement": "viability, T/C", "setting": "second compound 0.0316 µM, first compound 10 µM", "result": 26.1, "unit": "%"}, {"measurement": "viability, T/C", "setting": "second compound 0.1 µM, first compound 0.0316 µM", "result": 86.1, "unit": "%"}, {"measurement": "viability, T/C", "setting": "second compound 0.1 µM, first compound 0.1 µM", "result": 68.2, "unit": "%"}, {"measurement": "viability, T/C", "setting": "second compound 0.1 µM, first compound 0.316 µM", "result": 64.5, "unit": "%"}, {"measurement": "viability, T/C", "setting": "second compound 0.1 µM, first compound 1 µM", "result": 40.5, "unit": "%"}, {"measurement": "viability, T/C", "setting": "second compound 0.1 µM, first compound 3.16 µM", "result": 37.5, "unit": "%"}, {"measurement": "viability, T/C", "setting": "second compound 0.1 µM, first compound 10 µM", "result": 22.9, "unit": "%"}, {"measurement": "viability, T/C", "setting": "second compound 0.316 µM, first compound 0.0316 µM", "result": 82.5, "unit": "%"}, {"measurement": "viability, T/C", "setting": "second compound 0.316 µM, first compound 0.1 µM", "result": 60, "unit": "%"}, {"measurement": "viability, T/C", "setting": "second compound 0.316 µM, first compound 0.316 µM", "result": 44.5, "unit": "%"}, {"measurement": "viability, T/C", "setting": "second compound 0.316 µM, first compound 1 µM", "result": 35, "unit": "%"}, {"measurement": "viability, T/C", "setting": "second compound 0.316 µM, first compound 3.16 µM", "result": 31.1, "unit": "%"}, {"measurement": "viability, T/C", "setting": "second compound 0.316 µM, first compound 10 µM", "result": 15.8, "unit": "%"}, {"measurement": "viability, T/C", "setting": "second compound 1 µM, first compound 0.0316 µM", "result": 68.6, "unit": "%"}, {"measurement": "viability, T/C", "setting": "second compound 1 µM, first compound 0.1 µM", "result": 63.6, "unit": "%"}, {"measurement": "viability, T/C", "setting": "second compound 1 µM, first compound 0.316 µM", "result": 47.5, "unit": "%"}, {"measurement": "viability, T/C", "setting": "second compound 1 µM, first compound 1 µM", "result": 25.6, "unit": "%"}, {"measurement": "viability, T/C", "setting": "second compound 1 µM, first compound 3.16 µM", "result": 20.4, "unit": "%"}, {"measurement": "viability, T/C", "setting": "second compound 1 µM, first compound 10 µM", "result": 10.2, "unit": "%"}, {"measurement": "viability, T/C", "setting": "second compound 3.16 µM, first compound 0.0316 µM", "result": 57.6, "unit": "%"}, {"measurement": "viability, T/C", "setting": "second compound 3.16 µM, first compound 0.1 µM", "result": 43.4, "unit": "%"}, {"measurement": "viability, T/C", "setting": "second compound 3.16 µM, first compound 0.316 µM", "result": 32.9, "unit": "%"}, {"measurement": "viability, T/C", "setting": "second compound 3.16 µM, first compound 1 µM", "result": 17.8, "unit": "%"}, {"measurement": "viability, T/C", "setting": "second compound 3.16 µM, first compound 3.16 µM", "result": 11.7, "unit": "%"}, {"measurement": "viability, T/C", "setting": "second compound 3.16 µM, first compound 10 µM", "result": 7.15, "unit": "%"}, {"measurement": "viability, T/C", "setting": "second compound 10 µM, first compound 0.0316 µM", "result": 34, "unit": "%"}, {"measurement": "viability, T/C", "setting": "second compound 10 µM, first compound 0.1 µM", "result": 33.9, "unit": "%"}, {"measurement": "viability, T/C", "setting": "second compound 10 µM, first compound 0.316 µM", "result": 17.9, "unit": "%"}, {"measurement": "viability, T/C", "setting": "second compound 10 µM, first compound 1 µM", "result": 8.97, "unit": "%"}, {"measurement": "viability, T/C", "setting": "second compound 10 µM, first compound 3.16 µM", "result": 3.2, "unit": "%"}, {"measurement": "viability, T/C", "setting": "second compound 10 µM, first compound 10 µM", "result": 0.42, "unit": "%"}]}
